# In patent US4429127A, “Quinoline carboxylic acid derivative” (Kyorin Pharmaceutical Co., Ltd., priority 1981, dated 1984):
# Experiments:
# [1] = tested on: gram-positive and gram-negative bacteria; assay: In vitro antibacterial activity against gram-positive and gram-negative bacteria (in words); assay type: cell-based; conditions: versus nalidixic acid and pipemidic acid
# Procedure: The minimum inhibitory concentration (MIC) of the compound (I) was determined by an agar dilution technique (the standard method of Japan Society of Chemotherapy) against standard strains of gram-positive and gram-negative bacteria.
# [2] = Tissue levels after a single oral administration in mice (microbiological assay); assay type: in vivo; conditions: mouse; for concentration at 0.5 h / concentration at 1 h / concentration at 2 h / concentration at 4 h / concentration at 6 h: 50 mg/kg oral
# Procedure: (§1) Tissue levels of the compound (I) after a single oral administration of 50 mg/kg in mice and rats
# (§2) Tissue levels of the compound (I) were determined by micro-biological assay which employed the thin layer cup method with Bacillus subtilis ATCC6633 as the test organism. Serum and tissue levels of the compound (I) were calculated with the standard curve prepared in normal serum of the test animal species and M/15 phosphate buffer (pH 7.5), respectively.
# [3] = Tissue levels after a single oral administration, mice and rats together; assay type: in vivo; conditions: single oral 50 mg/kg
# Procedure: as §1, §2
# [4] = Tissue levels after a single oral administration in rats (microbiological assay); assay type: in vivo; conditions: rat; for concentration at 0.5 h / concentration at 1 h / concentration at 2 h / concentration at 4 h / concentration at 6 h: 50 mg/kg oral
# Procedure: as §1, §2
# [5] = kidney, read-out: Kidney concentration
# [6] = liver, read-out: Liver concentration
# [7] = lung, read-out: Lung concentration
# [8] = serum, read-out: Serum concentration
smiles,measurement,setting,value
"CCn1cc(C(=O)O)c(=O)c2cc(F)c(N3CCN(Cc4ccc(N)cc4)CC3)c(F)c21 [compound (I), 7-[4-(p-aminobenzyl)-1-piperazinyl]-1-ethyl-6,8-difluoro-1,4-dihydro-4-oxoquinoline-3-carboxylic acid]","Antibacterial activity against gram-positive and gram-negative bacteria, in words",[1],more active than nalidixic acid and pipemidic acid
same,concentration at 0.5 h,[2]; [5],13000 ng/mL
same,concentration at 1 h,[2]; [5],13000 ng/mL
same,concentration at 2 h,[2]; [5],7800 ng/mL
same,concentration at 4 h,[2]; [5],4600 ng/mL
same,concentration at 6 h,[2]; [5],4600 ng/mL
same,concentration at 0.5 h,[2]; [6],22500 ng/mL
same,concentration at 1 h,[2]; [6],17500 ng/mL
same,concentration at 2 h,[2]; [6],12000 ng/mL
same,concentration at 4 h,[2]; [6],9000 ng/mL
same,concentration at 6 h,[2]; [6],5800 ng/mL
same,concentration at 0.5 h,[2]; [7],12800 ng/mL
same,concentration at 1 h,[2]; [7],9500 ng/mL
same,concentration at 2 h,[2]; [7],5500 ng/mL
same,concentration at 4 h,[2]; [7],4300 ng/mL
same,concentration at 6 h,[2]; [7],2800 ng/mL
same,concentration at 0.5 h,[2]; [8],8600 ng/mL
same,concentration at 1 h,[2]; [8],6500 ng/mL
same,concentration at 2 h,[2]; [8],5000 ng/mL
same,concentration at 4 h,[2]; [8],2700 ng/mL
same,concentration at 6 h,[2]; [8],1800 ng/mL
same,Cmax,"[2]; serum, mice, single oral 50 mg/kg, read-out: Peak serum level",8600 ng/mL
same,"Level in lung, liver and kidney relative to serum, in words",[3]; both species,higher than those in serum
same,"Transferability in tissues, in words",[3]; mice and rats,very excellent
same,Tmax,"[3]; serum, mice and rats, read-out: Time to peak serum level",30 to 60 min
same,concentration at 0.5 h,[4]; [5],6600 ng/mL
same,concentration at 1 h,[4]; [5],6800 ng/mL
same,concentration at 2 h,[4]; [5],2700 ng/mL
same,concentration at 4 h,[4]; [5],1000 ng/mL
same,concentration at 6 h,[4]; [5],300 ng/mL
same,concentration at 0.5 h,[4]; [6],14000 ng/mL
same,concentration at 1 h,[4]; [6],15400 ng/mL
same,concentration at 2 h,[4]; [6],6200 ng/mL
same,concentration at 4 h,[4]; [6],2200 ng/mL
same,concentration at 6 h,[4]; [6],800 ng/mL
same,concentration at 0.5 h,[4]; [7],6000 ng/mL
same,concentration at 1 h,[4]; [7],8600 ng/mL
same,concentration at 2 h,[4]; [7],2100 ng/mL
same,concentration at 4 h,[4]; [7],600 ng/mL
same,concentration at 0.5 h,[4]; [8],4800 ng/mL
same,concentration at 1 h,[4]; [8],5300 ng/mL
same,concentration at 2 h,[4]; [8],1200 ng/mL
same,concentration at 4 h,[4]; [8],200 ng/mL
same,concentration at 6 h,[4]; [8],200 ng/mL
same,Cmax,"[4]; serum, rats, single oral 50 mg/kg, read-out: Peak serum level",5300 ng/mL
